Results published in patent publication US20230167073A1 (Teijin Pharma Limited, priority 2020, published 2023).
Like-named read-outs stand apart in the source and are kept apart here.

Biological target: T1, Human TRPC6 (Homo sapiens, UniProt Q9Y210)
T1 construct: expressed in transfected cells
T1 sequence (Q9Y210 1-931): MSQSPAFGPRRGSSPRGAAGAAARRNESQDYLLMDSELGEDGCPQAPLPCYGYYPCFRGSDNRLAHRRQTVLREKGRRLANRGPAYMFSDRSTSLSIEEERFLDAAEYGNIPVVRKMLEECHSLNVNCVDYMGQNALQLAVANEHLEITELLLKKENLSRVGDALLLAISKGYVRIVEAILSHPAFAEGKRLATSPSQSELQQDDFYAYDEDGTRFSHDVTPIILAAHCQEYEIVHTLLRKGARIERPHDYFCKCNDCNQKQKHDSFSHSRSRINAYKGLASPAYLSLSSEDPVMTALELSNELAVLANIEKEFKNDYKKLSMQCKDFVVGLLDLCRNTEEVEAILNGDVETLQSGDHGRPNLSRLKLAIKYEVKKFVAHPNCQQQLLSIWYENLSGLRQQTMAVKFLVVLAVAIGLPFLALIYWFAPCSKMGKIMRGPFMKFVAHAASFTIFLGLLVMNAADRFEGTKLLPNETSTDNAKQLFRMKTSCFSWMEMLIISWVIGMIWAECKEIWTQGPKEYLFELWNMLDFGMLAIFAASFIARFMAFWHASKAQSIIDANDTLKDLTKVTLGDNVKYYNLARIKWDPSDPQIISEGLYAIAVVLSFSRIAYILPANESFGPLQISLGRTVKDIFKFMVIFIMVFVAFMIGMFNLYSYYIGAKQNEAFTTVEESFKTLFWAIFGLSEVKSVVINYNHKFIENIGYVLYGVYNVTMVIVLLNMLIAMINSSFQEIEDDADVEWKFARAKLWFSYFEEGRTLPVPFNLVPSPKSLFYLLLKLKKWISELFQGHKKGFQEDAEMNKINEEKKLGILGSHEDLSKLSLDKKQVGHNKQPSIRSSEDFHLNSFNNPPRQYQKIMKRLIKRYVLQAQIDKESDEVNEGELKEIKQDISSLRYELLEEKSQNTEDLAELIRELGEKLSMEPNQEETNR
Assay: Evaluation of TRPC6 channel inhibitory activity (1), FLIPR Calcium 5 Assay Kit, OAG stimulation (Compound Nos. 1-1293)
Format: cell-based
Method in brief: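 The FLIPR signal is maximum fluorescence after 30 μM OAG minus minimum before compound, measured in a human TRPC6 stable line loaded with Calcium 5 dye. Compounds were preincubated 20 min. pIC50 came from four-parameter logistic fitting of inhibition rates and is given as symbol ranges.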

[1] = Human TRPC6 stably-expressing cells, OAG 30 μM, FLIPR Calcium 5 Assay Kit, read-out: Inhibitory activity (pIC50 class) (converted)

IC50 [1] | SMILES | IC50
< 10 nM | C[C@H](N)c1cnc(-c2ccc(C#N)cc2Oc2cc(-c3ccccn3)nn2C)nc1 [compound 809, 4-[5-[(1S)-1-aminoethyl]pyrimidin-2-yl]-3-(2-methyl-5-pyridin-2-ylpyrazol-3-yl)oxybenzonitrile] | 
> 1000 nM | Cn1nc(-c2ccccc2)cc1Oc1cc(C#N)ccc1-n1cc(N2CCCNCC2=O)cn1 [Compound 218, 3-(2-methyl-5-phenylpyrazol-3-yl)oxy-4-[4-(2-oxo-1,4-diazepan-1-yl)pyrazol-1-yl]benzonitrile] | 
< 10 nM | Cn1nc(C2CCC2)cc1Oc1cc(C#N)ccc1-c1cnc(C(O)CN)cn1 (centres unmarked) [Compound 287, 4-[5-(2-amino-1-hydroxyethyl)pyrazin-2-yl]-3-(5-cyclobutyl-2-methylpyrazol-3-yl)oxybenzonitrile] | 
 | N#Cc1ccc(-c2ncc(CCN)cn2)c(Oc2ccc(N3C4CCC3CC4)nc2)c1 [compound 752, 4-[5-(2-aminoethyl)pyrimidin-2-yl]-3-[6-(7-azabicyclo[2.2.1]heptan-7-yl)pyridin-3-yl]oxybenzonitrile] | 10 to 1000 nM
> 1000 nM | Cn1nc(C2CC2)cc1Oc1cc(C#N)ccc1-c1ncc(N)cn1 [compound 417, 4-(5-aminopyrimidin-2-yl)-3-(5-cyclopropyl-2-methylpyrazol-3-yl)oxybenzonitrile] | 
10 to 1000 nM | Cn1nc(-c2ccc(F)cc2)cc1Oc1cc(C#N)ccc1-c1ccc(CCN)cc1 [Compound 165, 4-[4-(2-aminoethyl)phenyl]-3-[5-(4-fluorophenyl)-2-methylpyrazol-3-yl]oxybenzonitrile] | 
10 to 1000 nM | N#Cc1ccc(-c2ccc(CCN)cn2)c(Oc2cnnc(N3CCCCC3)c2)c1 [Compound 90, 4-[5-(2-aminoethyl)pyridin-2-yl]-3-(6-piperidin-1-ylpyridazin-4-yl)oxybenzonitrile] | 
< 10 nM | Cc1nc(Oc2cc(C#N)ccc2-c2ncc(CCN)cn2)cc(-c2ccccc2C#N)n1 [Compound 295, 4-[5-(2-aminoethyl)pyrimidin-2-yl]-3-[6-(2-cyanophenyl)-2-methylpyrimidin-4-yl]oxybenzonitrile] | 
10 to 1000 nM | COC(c1cc(C#N)ccc1-c1ncc(CCN)cn1)c1cc(C(C)(C)C)nn1C (centres unmarked) [compound 1236, 4-[5-(2-aminoethyl)pyrimidin-2-yl]-3-[(5-tert-butyl-2-methylpyrazol-3-yl)-methoxymethyl]benzonitrile] | 
> 1000 nM | Cc1nc(-c2ccccc2)cn1Cc1cc(C#N)ccc1-n1cc(C(O)CN)cn1 (centres unmarked) [compound 1128, 4-[4-(2-amino-1-hydroxyethyl)pyrazol-1-yl]-3-[(2-methyl-4-phenylimidazol-1-yl)methyl]benzonitrile] | 
10 to 1000 nM | Cn1nc(C2CC2)cc1Oc1cc(C#N)ccc1-c1ccc(CN)nn1 [compound 870, 4-[6-(aminomethyl)pyridazin-3-yl]-3-(5-cyclopropyl-2-methylpyrazol-3-yl)oxybenzonitrile] | 
< 10 nM | Cn1nc(N2CCCC2)cc1Oc1cc(C#N)ccc1-c1ncc(CN)cn1 [compound 625, 4-[5-(aminomethyl)pyrimidin-2-yl]-3-(2-methyl-5-pyrrolidin-1-ylpyrazol-3-yl)oxybenzonitrile] | 
< 10 nM | CCN(CC)c1cc(C(=O)c2cc(C#N)ccc2-c2ncc(CCN)cn2)n(C)n1 [compound 1032, 4-[5-(2-aminoethyl)pyrimidin-2-yl]-3-[5-(diethylamino)-2-methylpyrazole-3-carbonyl]benzonitrile] | 
< 10 nM | Cn1nc(C(C)(C)C)cc1Oc1cc(C#N)ccc1-c1ncc(CCN)cn1 [compound 367, 4-[5-(2-aminoethyl)pyrimidin-2-yl]-3-(5-tert-butyl-2-methylpyrazol-3-yl)oxybenzonitrile] | 
10 to 1000 nM | CC(C)CNc1cc(Sc2cc(C#N)ccc2-c2ncc(CN)cn2)cnn1 [compound 1273, 4-[5-(aminomethyl)pyrimidin-2-yl]-3-[6-(2-methylpropylamino)pyridazin-4-yl]sulfanylbenzonitrile] | 
> 1000 nM | Cn1nc(-c2ccccc2)cc1Oc1cc(C#N)ccc1-c1cc2c(cn1)CNCC2 [Compound 291, 3-(2-methyl-5-phenylpyrazol-3-yl)oxy-4-(5,6,7,8-tetrahydro-2,7-naphthylidin-3-yl)benzonitrile] | 

IC50 [1] | SMILES | IC50
10 to 1000 nM | Cc1nc(C(F)(F)F)cn1Cc1cc(C#N)ccc1-c1ncc(CN)cn1 [compound 1174, 4-[5-(aminomethyl)pyrimidin-2-yl]-3-[[2-methyl-4-(trifluoromethyl)imidazol-1-yl]methyl]benzonitrile] | 
> 1000 nM | Cc1nc(Oc2cc(C#N)ccc2-c2ncc(CN)cn2)cc(O[C@@H]2CCOC2)n1 [compound 844, 4-[5-(aminomethyl)pyrimidin-2-yl]-3-[2-methyl-6-[(3R)-oxolan-3-yl]oxypyrimidin-4-yl]oxybenzonitrile] | 
< 10 nM | CC(C)Cc1cc(Oc2cc(C#N)ccc2-c2ccc(CCN)cc2)n(C)n1 [Compound 211, 4-[4-(2-aminoethyl)phenyl]-3-[2-methyl-5-(2-methylpropyl)pyrazol-3-yl]oxybenzonitrile] | 
 | Cc1nc(Oc2cc(C#N)ccc2-n2cc(C3=CCNCC3)cn2)cc(C2CCCC2)n1 [Compound 221, 3-(6-cyclopentyl-2-methylpyrimidin-4-yl)oxy-4-[4-(1,2,3,6-tetrahydropyridin-4-yl)pyrazol-1-yl]benzonitrile] | 10 to 1000 nM
10 to 1000 nM | Cc1nc(Oc2cc(C#N)ccc2-n2cc([C@H](O)CN)cn2)cc(-c2cccc(C(F)(F)F)c2)n1 [compound 357, 4-[4-[(1S)-2-amino-1-hydroxyethyl]pyrazol-1-yl]-3-[2-methyl-6-[3-(trifluoromethyl)phenyl]pyrimidin-4-yl]oxybenzonitrile] | 
< 10 nM | CC(N)c1cnc(-c2ccc(C#N)cc2Oc2cc(-c3ccccn3)nn2C)nc1 (centres unmarked) [compound 702, 4-[5-(1-aminoethyl)pyrimidin-2-yl]-3-(2-methyl-5-pyridin-2-ylpyrazol-3-yl)oxybenzonitrile] | 
< 10 nM | Cc1nc(Oc2cc(C#N)ccc2-c2ncc(CCN)cn2)cc(N2CCCCC2)n1 [compound 447, 4-[5-(2-aminoethyl)pyrimidin-2-yl]-3-(2-methyl-6-piperidin-1-ylpyrimidin-4-yl)oxybenzonitrile] | 
< 10 nM | CC(N)c1ccc(-c2ccc(C#N)cc2Oc2cc(C3CC3)nn2C)nc1 (centres unmarked) [compound 401, 4-[5-(1-aminoethyl)pyridin-2-yl]-3-(5-cyclopropyl-2-methylpyrazol-3-yl)oxybenzonitrile] | 
< 10 nM | Cn1nc(-c2ccccn2)cc1Oc1cc(C#N)ccc1-c1ccc(CCN)cn1 [Compound 176, 4-[5-(2-aminoethyl)pyridin-2-yl]-3-(2-methyl-5-pyridin-2-ylpyrazol-3-yl)oxybenzonitrile] | 
10 to 1000 nM | N#Cc1ccc(-n2ccc(C(O)CN)n2)c(Oc2cnnc(-c3ccc[nH]3)c2)c1 (centres unmarked) [Compound 196, 4-[3-(2-amino-1-hydroxyethyl)pyrazol-1-yl]-3-[6-(1H-pyrrol-2-yl)pyridazin-4-yl]oxybenzonitrile] | 
10 to 1000 nM | Cc1nc(Oc2cc(C#N)ccc2-c2ncc(CCN)cn2)cc(OC2CC2)n1 [compound 892, 4-[5-(2-aminoethyl)pyrimidin-2-yl]-3-(6-cyclopropyloxy-2-methylpyrimidin-4-yl)oxybenzonitrile] | 
< 10 nM | Cc1ccc(-c2cc(Oc3cc(C#N)ccc3-c3ccc(CCN)cn3)n(C)n2)nc1 [Compound 182, 4-[5-(2-aminoethyl)pyridin-2-yl]-3-[2-methyl-5-(5-methylpyridin-2-yl)pyrazol-3-yl]oxybenzonitrile] | 
> 1000 nM | Cc1nc(Oc2cc(C#N)ccc2-n2cc(N3CCNCC3=O)cn2)cc(C2CCCC2)n1 [Compound 208, 3-(6-Cyclopentyl-2-methylpyrimidin-4-yl)oxy-4-[4-(2-oxopiperazin-1-yl)pyrazol-1-yl]benzonitrile] | 
> 1000 nM | Cc1cc(Oc2cc(C#N)ccc2-c2ccc(C(=O)CN)cc2)cc(-c2ccccc2)n1 [Compound 201, 4-[4-(2-aminoacetyl)phenyl]-3-(2-methyl-6-phenylpyridin-4-yl)oxybenzonitrile] | 
10 to 1000 nM | Cc1nc(Oc2cc(C#N)ccc2-c2ccc([C@H](O)CN)cn2)cc(N2CCOC(C)(C)C2)n1 [compound 560, 4-[5-[(1S)-2-amino-1-hydroxyethyl]pyridin-2-yl]-3-[6-(2,2-dimethylmorpholin-4-yl)-2-methylpyrimidin-4-yl]oxybenzonitrile] | 
10 to 1000 nM | CC(C)(N)Cc1ccc(-c2ccc(C#N)cc2Oc2cnnc(N3CCOCC3)c2)cc1 [compound 297, 4-[4-(2-amino-2-methylpropyl)phenyl]-3-(6-morpholin-4-ylpyridazin-4-yl)oxybenzonitrile] | 
